Source: patent publication US4435566A, “Thiopyranopyrimidine compounds and acid addition salts thereof” (Maruko Seiyaku Co., Ltd., priority 1982, dated 1984)
Entries after “also recorded” stand apart in the source; their conditions may differ. Where two headings read alike, the source gives them in different places.

Tests used:
[1] = Acute toxicity (Behrens-Karber method); conditions: mouse, in vivo, mortality one week after administration
Protocol: The test compound was administered orally (p.o.) or intravenously (i.v.) from a tail vein to ddY male mice weighing 24±2 g. The LD50 values were calculated by the Behrens-Karber method [Arch. exp. Path. Pharmak., 177, 379 (1935)] from the mortality one week after administration.

[2] = system: Alloxan Diabetes Mice; test: Hypoglycemic activity (c): effect on alloxan diabetes mice, ED20; assay type: in vivo, mice (ddY male); conditions: Mus musculus; oral; 3 hours after administration; alloxan 50 mg/kg i.v.
Protocol: (§1) Alloxan was administered intravenously at a dose of 50 mg/kg from a tail vein to 5W ddY male mice weighing 23 to 27 g (10 […] per group). Seven days after administration, the test compound was administered orally to the mice and a blood sample was collected from the sacrificed mice after 3 hours. The blood sugar level of the sample was determined by the o-toluidine-boric acid method. The percent inhibition was calculated from the values in test group and the control, and a 20% inhibitory effective dose (ED20) was determined from a dose response curve.

[3] = system: Normal Mice; test: Hypoglycemic activity (d): effect on normal mice, ED20; assay type: in vivo, mice (ddY male); conditions: Mus musculus; oral; 3 hours after administration
Protocol: as §1
The test compound was administered orally to 6W ddY male mice and, 3 hours after administration, a blood sample was drawn from the sacrificed mice. The blood sugar level of the sample was determined and ED20 values were calculated in the same manner as described in (c) above.

[4] = system: Alloxan Diabetes Mice; test: Hypoglycemic activity (a): effect on alloxan diabetes mice, blood sugar 2 hours after oral administration; assay type: in vivo, mice (ddY male); conditions: for % Change in Blood Sugar Level / Blood Sugar Level Mean ± S.E.: 2 hours after administration; for Blood Sugar Level Mean ± S.E.: alloxan 40 mg/kg i.v.
Protocol: Alloxan was administered intravenously at a dose of 40 mg/kg from a tail vein to ddY male mice weighing 28.2 to 29.5 g. Seven days after administration, the test compound was administered orally to the mice and the blood sugar level was determined before and 2 hours after the administration of the test compound.

[5] = system: Alloxan Diabetes Rats; test: Hypoglycemic activity (b)(1): effect on alloxan diabetes rats, blood sugar 2 hours after oral administration; assay type: in vivo, rats (Wister male); conditions: for % Change in Blood Sugar Level / Blood Sugar Level Mean ± S.E.: 2 hours after administration; for Blood Sugar Level Mean ± S.E.: alloxan 30 mg/kg i.v.
Protocol: (1) Alloxan was administered intravenously at a dose of 30 mg/kg from a tail vein to Wister male rats weighing 200 to 218 g. Three days after administration, the test compound was administered orally to the rats and the blood sugar level was determined before and 2 hours after administration of the test compound.

[6] = biological target: T1, ileum of Hartley male guinea pig (histamine) (Cavia porcellus, UniProt P31389); test: Anti-histamine activity on isolated ileum (Magnus tube, cumulative technique); conditions: for Kb: Tyrode solution, 25±0.5° C., histamine added after 5 minutes, read-out: pA2 Value (converted)
T1 construct: The ileum of Hartley male guinea pig (body weight: 350-400 g) was extracted and suspended in a Magnus tube; from tissue; host or cells: isolated ileum of Hartley male guinea pig
T1 sequence (P31389 whole entry): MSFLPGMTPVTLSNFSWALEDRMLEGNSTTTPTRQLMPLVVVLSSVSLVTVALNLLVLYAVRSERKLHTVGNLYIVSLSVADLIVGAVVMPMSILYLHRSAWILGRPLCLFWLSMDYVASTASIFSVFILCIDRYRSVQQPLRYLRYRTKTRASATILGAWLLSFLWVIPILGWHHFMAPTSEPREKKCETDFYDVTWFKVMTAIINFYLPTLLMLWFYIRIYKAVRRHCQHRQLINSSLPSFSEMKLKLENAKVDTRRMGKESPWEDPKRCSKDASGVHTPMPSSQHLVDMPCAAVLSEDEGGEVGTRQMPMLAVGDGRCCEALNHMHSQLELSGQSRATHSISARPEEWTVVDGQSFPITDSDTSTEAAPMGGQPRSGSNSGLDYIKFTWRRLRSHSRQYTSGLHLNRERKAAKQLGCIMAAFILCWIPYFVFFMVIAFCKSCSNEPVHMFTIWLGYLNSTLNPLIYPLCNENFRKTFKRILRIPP
Protocol: The ileum of Hartley male guinea pig (body weight: 350-400 g) was extracted and suspended in a Magnus tube containing 40 ml of Tyrode solution and the muscle movement was recorded on a soot paper via an isotonic Hebel. The solution in the Magnus tube was maintained at 25±0.5° C. during the test and test compound was previously added to the solution.

[7] = system: platelet aggregation; test: Inhibition of platelet aggregation in platelet-rich plasma (aggregometer); assay type: cell-based, rabbits (male); conditions: for IC50: Oryctolagus cuniculus, Platelet; for Percent Inhibition, Collagen: Collagen (5 × 10^-4 g/ml)
Protocol: A blood sample drawn from a jugular vein of unanesthetized male rabbits (body weight: 2.2 to 2.6 kg) was mixed with a 3.8% aqueous sodium citrate solution in a proportion of 9:1 (by volume) and the mixture was centrifuged at 1,000 rpm for 10 minutes to obtain a platelet-rich plasma (about 5×10^5 platelets/mm^3, hereinafter "PRP"). To […] of PRP was added […] of an aqueous solution of the test compound and, after 2 hours, to the mixture was added either an adenosine diphosphate (ADP) solution (final concentration: 5×10^-6 M), a sodium arachidonate solution (final concentration: 5×10^-4 M) or collagen. The percent platelet aggregation was determined using an aggregometer and the inhibition of platelet aggregation by the test compound was calculated.

[8] = system: Alloxan Diabetes Rats; test: Hypoglycemic activity (b)(2): effect on alloxan diabetes rats, time course of blood sugar (o-toluidine-boric acid method); assay type: in vivo, rats (Wister male); set-up: unit not given here; conditions: 100 mg/kg, oral
Protocol: (2) Alloxan was administered intravenously at a dose of 18 mg/kg to 9-10W Wister male rats weighing 240 to 280 g. Three days after administration, the test compound was administered orally to the rats (after fasting for 4 hours) and the blood sugar level was determined before and 1, 2 and 3 hours after administration of the test compound with respect to the blood samples drawn from the jugular vein by the o-toluidine-boric acid method.

[9] = rabbit PRP, sodium arachidonate final concentration 5×10^-4 M, read-out: OC50, Arachidonic Acid
[10] = rabbit PRP, ADP final concentration 5×10^-6 M, read-out: IC50, ADP

CNc1nc(N2CCNCC2)nc2c1SCCC2 [Compound B, 4-methylamino-2-piperazino-7,8-dihydro-6H-thiopyrano[3,2-d]pyrimidine]
LD50 at 168 h ([1]; po, read-out: LD50, p.o.): 580 mg/kg | ED20 [2]: 53 mg/kg | ED20 [3]: 37 mg/kg

CCCCNC(=O)NS(=O)(=O)c1ccc(C)cc1 [Tolbutamide, 1-Butyl-3-(p-tolylsulfonyl)-urea, reference compound]
hypoglycemic activity (in words) ([4]; 500 mg/kg): weak hypoglycemic activity | % Change in Blood Sugar Level ([4]; 500 mg/kg): -13.7% | Blood Sugar Level Mean ± S.E. ([4]; 500 mg/kg): 278.4 ± 25.7 mg/dL | hypoglycemic activity (in words) ([5]; 300 mg/kg): significant hypoglycemic activity | % Change in Blood Sugar Level ([5]; 300 mg/kg): -18.6% | Blood Sugar Level Mean ± S.E. ([5]; 300 mg/kg): 285.2 ± 2.8 mg/dL

CN1CCN(c2nc3c(c(N4CCCC4)n2)SCCC3)CC1.O=C(O)/C=C\C(=O)O [Compound F, 2-(N-methylpiperazino)-4-pyrrolidino-7,8-dihydro-6H-thiopyrano[3,2-d]pyrimidine maleate]
anti-histamine activity compared with Diphenhydramine (in words) [6]: substantially equal to that of Diphenhydramine | Kb [6]: 20.4 nM | LD50 at 168 h ([1]; iv, read-out: LD50, i.v.): 100 mg/kg | LD50 at 168 h ([1]; po, read-out: LD50, p.o.): 1250 mg/kg | IC50 [7, 9]: 30 µM | Percent Inhibition, Collagen ([7]; rabbit PRP): 73%

C1CSc2c(nc(N3CCNCC3)nc2N2CCCC2)C1.O=C(O)/C=C\C(=O)O [Compound E, 2-piperazino-4-pyrrolidino-7,8-dihydro-6H-thiopyrano[3,2-d]pyrimidine maleate]
anti-histamine activity compared with Diphenhydramine (in words) [6]: substantially equal to that of Diphenhydramine | Kb [6]: 42.7 nM | LD50 at 168 h ([1]; iv, read-out: LD50, i.v.): 125 mg/kg | LD50 at 168 h ([1]; po, read-out: LD50, p.o.): 1170 mg/kg | hypoglycemic activity (in words) ([4]; 200 mg/kg): significant hypoglycemic activity | % Change in Blood Sugar Level ([4]; 200 mg/kg): -36.3% | Blood Sugar Level Mean ± S.E. ([4]; 200 mg/kg): 205.5 ± 29.3 mg/dL

C1CSc2c(nc(N3CCNCC3)nc2N2CCOCC2)C1.O=C(O)/C=C\C(=O)O [Compound G, 4-morpholino-2-piperazino-7,8-dihydro-6H-thiopyrano[3,2-d]pyrimidine maleate]
LD50 at 168 h ([1]; iv, read-out: LD50, i.v.): 135 mg/kg | LD50 at 168 h ([1]; po, read-out: LD50, p.o.): 960 mg/kg | IC50 [7, 10]: 150 µM | IC50 [7, 9]: 750 µM | Percent Inhibition, Collagen ([7]; rabbit PRP): 95% | Blood Sugar Level Mean ± S.E., After 1 Hr. ([8]; 1 hour after administration, fasted 4 hours): 141.3 ± 10.4 | Blood Sugar Level Mean ± S.E., After 2 Hrs. ([8]; 2 hours after administration, fasted 4 hours): 130.6 ± 12.6 | Blood Sugar Level Mean ± S.E., After 3 Hrs. ([8]; 3 hours after administration, fasted 4 hours): 130.3 ± 10.3 | Blood Sugar Level Mean ± S.E., Before ([8]; before administration (baseline)): 189.5 ± 9.4 | hypoglycemic activity (in words) ([4]; 200 mg/kg): significant hypoglycemic activity | % Change in Blood Sugar Level ([4]; 200 mg/kg): -39.5% | Blood Sugar Level Mean ± S.E. ([4]; 200 mg/kg): 195.2 ± 39.7 mg/dL | % Change in Blood Sugar Level ([5]; 100 mg/kg): -30.2% | Blood Sugar Level Mean ± S.E. ([5]; 100 mg/kg): 286.3 ± 76 mg/dL | hypoglycemic activity (in words) ([5]; 100 mg/kg, maleate): significant hypoglycemic activity; also recorded: strongest activity

Nc1nc(N2CCNCC2)nc2c1SCCC2 [Compound D, 4-Amino-2-piperazino-7,8-dihydro-6H--thiopyrano[3,2-d]pyrimidine Dimaleate]
LD50 at 168 h ([1]; po, read-out: LD50, p.o.): 820 mg/kg | ED20 [2]: 52 mg/kg | ED20 [3]: 11 mg/kg

Nc1nc2c(c(N3CCNCC3)n1)SCCC2.O=C(O)/C=C\C(=O)O.O=C(O)/C=C\C(=O)O [Compound C, 2-amino-4-piperazino-7,8-dihydro-6H-thiopyrano[3,2-d]pyrimidine dimaleate]
LD50 at 168 h ([1]; po, read-out: LD50, p.o.): 1400 mg/kg | ED20 [2]: 47 mg/kg | ED20 [3]: 230 mg/kg

CC(=O)Oc1ccccc1C(=O)O [Acetylsalicylic Acid (Aspirin), Acetylsalicylic Acid, reference compound]
IC50 ([7]; read-out: IC50, ADP): 2000 µM | IC50 ([7]; read-out: OC50, Arachidonic Acid): 180 µM

CN1CCN(c2nc3c(c(N4CCOCC4)n2)SCCC3)CC1 [Compound H, 2-(N-methylpiperazino)-4-morpholino-7,8-dihydro-6H-thiopyrano[3,2-d]pyrimidine]
LD50 at 168 h ([1]; iv, read-out: LD50, i.v.): 200 mg/kg | LD50 at 168 h ([1]; po, read-out: LD50, p.o.): 1580 mg/kg | IC50 [7, 10]: 1000 µM | IC50 [7, 9]: 8.4 µM | Percent Inhibition, Collagen ([7]; rabbit PRP): 65%

CCCCNC(=N)NC(=N)N [Buformin, 1-Butyl-biguanide, reference compound]
hypoglycemic activity (in words) ([4]; 150 mg/kg): weak hypoglycemic activity | % Change in Blood Sugar Level ([4]; 150 mg/kg): -15.3% | Blood Sugar Level Mean ± S.E. ([4]; 150 mg/kg): 273.3 ± 28.7 mg/dL | hypoglycemic activity (in words) ([5]; 100 mg/kg): significant hypoglycemic activity | % Change in Blood Sugar Level ([5]; 100 mg/kg): -22.9% | Blood Sugar Level Mean ± S.E. ([5]; 100 mg/kg): 275.5 ± 6.0 mg/dL

CN1CCN(c2nc(N)c3c(n2)CCCS3)CC1 [Compound A, 4-amino-2-(N-methylpiperazino)-7,8-dihydro-6H-thiopyrano[3,2-d]pyrimidine]
LD50 at 168 h ([1]; po, read-out: LD50, p.o.): 1450 mg/kg | ED20 [2]: 60 mg/kg | ED20 [3]: 127 mg/kg
